Measured values taken from patent publication US20030134342A1, “Binding-specific peptides, binding-specific carrier molecules, and uses thereof” (priority 2001, published 2003).
Where no end group is shown, it is not given here.

Experiments:
CML cells = assay: ELISA binding of phage displaying peptides to fixed cells: CML cells; parameters: species or system human; conditions: in words
Procedure: (§1) Preliminary experiments were performed to identify specific peptides by using cells from patients diagnosed with CLL, CML, and AML. The screening was performed by incubating the cells with the phage-peptides from the library. This incubation allows interaction between the peptide and the cell. The binding step was followed by several washes to eliminate free phage. Phage bound on the cell surface was eluted.
(§2) After the last round of binding with one cell type, the eluted phage was plated on an agar plate with the appropriate selection antibiotics. Each individual colony, corresponding to one individual peptide sequence, was amplified in a 96-well plate. After purification, these peptides were tested for their ability to bind to the cells in a microtiter plate by ELISA.
(§3) Each peptide was dispensed in a 96-well plate, containing cells previously fixed. Each colony was tested in a triplicate assay with the appropriate controls. After incubation of cells with an individual clone, the wells were washed to eliminate free phage. The bound phages were detected by using a monoclonal anti-M13 antibody/horseradish peroxidase (HRP) conjugate. After addition of the HRP substrate, the intensity of the coloration was measured by spectrophotometry. The light absorbance values (optical density values, O.D. values) are proportional to the number of phage bound to the cells.
(§4) The binding to various cell types were examined to evaluate the cellular specificity of the phage clones. For example, the clones from phage eluted from CLL patient cells were assayed for their ability to bind cells from an AML patient. Cells from normal donors (non-leukemic) were also evaluated to ascertain leukemia cell specificity.
(§5) Peripheral blood and bone marrow samples were collected from patients after informed consent. The samples were collected in tubes containing sodium citrate. Mononuclear cells were isolated by Ficoll-Hypaque density gradient separation and collection of the cells at a density of 1.077 g/mL.
(§6) The wells of a 96-well plate were pre-treated with 100 μL of poly-L-lysine (0.01 mg/mL in phosphate-buffered saline, 120 mM NaCl, 2.7 mM KCl, 10 mM phosphate buffer, “PBS”) for 2-16 hours at room temperature. After draining the poly-L-lysine from the wells, the excess poly-L-lysine was removed from the wells by flicking. The cells were washed with PBS, then suspended in PBS and diluted to a final concentration of […]. The cell suspension (200 μL; 250,000 cells) were added to each well needed for the assay.
(§7) The plates were centrifuged at 500 g for about 5 minutes in a microplate carrying centrifuge when available. The cells were fixed to the wells through the addition of glutaraldehyde (100 μL of 0.5%) and incubating at room temperature for about an hour. The glutaraldehyde was removed and the cell-coated wells washed once with PBS. Alternatively, the cells were permitted to settle to the well bottoms for about 4 hours at 37° C., and the glutaraldehyde fixative was added after removing the PBS.
(§8) A glycine solution (200 μl of 0.1 M glycine in PBS) containing bovine serum albumin (BSA; 1%) was added to the wells and permitted to incubate for 30 minutes to block excess glutaraldehyde. The glycine was removed, and the cell-coated wells washed once with PBS. A sodium pyrophosphate solution (200 μL of 0.3 mg/mL NaPPi) was added to the wells and incubated for an hour at room temperature to neutralize lysine charges. The pyrophosphate solution was removed and the wells washed once with PBS. Multiwell microtiter plates with cell-coated wells were stored at 4° C. with fresh PBS solution in the coated wells.
(§9) The cells to be studied for binding were suspended in PBS and adsorbed onto to a poly-L-lysine pretreated 96-well plate and kept at 4° C. The PBS was removed from the wells and an H2O2 solution in PBS (6% H2O2 in 200 μL/well) was added. […]

CLL cells = assay: ELISA binding of phage displaying peptides to fixed cells: CLL cells; parameters: species or system human; conditions: in words
Procedure: as §1, §2, §3, §4, §5, §6, §7, §8, §9

AML cells = assay: ELISA binding of phage displaying peptides to fixed cells: AML cells; parameters: species or system human; conditions: in words
Procedure: as §1, §2, §3, §4, §5, §6, §7, §8, §9

[1] = test system: all myeloid cells, both malignant and nonmalignant; assay: ELISA binding of phage displaying peptides to fixed cells: all myeloid cells; parameters: species or system human; conditions: in words
Procedure: as §1, §2, §3, §4, §5, §6, §7, §8, §9

[2] = test system: normal peripheral blood cells (lymphocytes and granulocytes); assay: ELISA binding of phage displaying peptides to fixed cells: normal peripheral blood cells; parameters: species or system human; conditions: in words
Procedure: as §1, §2, §3, §4, §5, §6, §7, §8, §9

[3] = test system: human myeloid leukemia cell line HL60; assay: Viability of HL60 cells, trypan blue; format: cell-based
Procedure: Studies were conducted of the effects of the free G5 12-8B (artificially synthesized), phage displaying G5 12-8B, the free A2 11-24 peptide, phage displaying the A2 11-24 peptide, a combination of the free G5 and A2 peptides, a combination of pure peptides plus phage displaying the peptides, and several concentrations of peptide.

[4] = test system: human bone marrow AML cells; assay: Effect of phage-peptides on differentiation, cell number and viability of freshly obtained AML patient bone marrow cells cultured seven days; format: cell-based; conditions: for Number of Cells / Percent Differentiation / Viability: phage-peptides; for Percent differentiated in Specimen 1 / Percent differentiated in Specimen 2: peptides in bacteriophage, AML cells cultured seven days in vitro
Source text: The effect of various phage-peptides were studied on the differentiation of cells from two AML patients.

Substance	binding of phage displaying the peptide to CML cells (CML cells)	binding of phage displaying the peptide to CLL cells (CLL cells)	binding of phage displaying the peptide to AML cells (AML cells)	binding of phage displaying the peptide to all myeloid cells, both malignant and nonmalignant [1]	binding of phage displaying the peptide to blood cells (lymphocytes or granulocytes) [2]	further results
IEETARKG [D9 12-8B]	bind	bind	bind	bind	bind	–
IEETARKG [peptide A2]	–	–	–	–	–	Day 5 Viability ([3]; 5 day): 97%; Day 7 Viability ([3]; 7 day): 95%; Day 9 Viability ([3]; 9 day): 74%
NELHMKQH [G6 12-8B]	–	–	–	bind	–	–
NETTVREY [A7 11-24]	–	bind	–	–	bind	–
NETTVREY [C9 11-24]	bind	bind	bind	bind	bind	–
NETTVREY [F10 11-24]	bind	not	bind	bind	–	–
NHVCSRLG [B4(2)]	bind	bind	bind	–	bind	–
NHVCSRLG [B6 11-24]	–	–	–	bind	–	–
NNATFEDG [G2 12-8A]	–	–	–	–	–	Number of Cells ([4]; Patient 1): 0.93 106; Percent Differentiation ([4]; Patient 1): 27.5%; Number of Cells ([4]; Patient 2): 0.31 106; Percent Differentiation ([4]; Patient 2): 52%; Percent differentiated in Specimen 1 [4]: 28%; Percent differentiated in Specimen 2 [4]: 51%
NNATVEDE [F9 11-24]	–	–	–	bind	–	–
VSEDIYDA [C10 12-8B]	bind	bind	bind	bind	–	–
VSEDIYDA [E5 12-8B]	–	bind	–	–	bind	–
VSEDIYDA [F1 12-8B]	binds and bind	not	binds and bind	bind	–	Number of Cells ([4]; Patient 1): 0.82 106; Percent Differentiation ([4]; Patient 1): 34%; Number of Cells ([4]; Patient 2): 0.22 106; Percent Differentiation ([4]; Patient 2): 52%; Percent differentiated in Specimen 1 [4]: 34%; Percent differentiated in Specimen 2 [4]: 52%
granulocyte-macrophage colony-stimulating factor [GM-CSF]	–	–	–	–	–	Number of Cells ([4]; Patient 1): 1.57 106; Percent Differentiation ([4]; Patient 1): 21%; Viability ([4]; Patient 1): 80%; Number of Cells ([4]; Patient 2): 0.87 106; Percent Differentiation ([4]; Patient 2): 16.5%; Viability ([4]; Patient 2): 89%; Percent differentiated in Specimen 1 [4]: 21%; Percent differentiated in Specimen 2 [4]: 17%
